Series [1] is described as follows: Serum NAG and glucosamine levels after oral ingestion of NAG or poly-NAG in healthy subjects (crossover, HPLC analysis). The class given is in vivo, human. The text has this: Ten normal, healthy subjects (five men and five women ages 36-50) were randomly divided into two groups (designated as A and B). On Day-1 a fasting blood sample was collected from each patient. Following this, group A orally ingested 1.0 gram of NAG and group B ingested 1.0 gram of poly-NAG. On Day-2 the subjects again ingested one gram of the appropriate test substance before breakfast. On the third day a fasting blood sample was taken at time T=0. Subsequently, they consumed the final 1.0 gram of the appropriate test substance, and nonfasting blood samples were taken at 1, 2, 4, and 8 hours. Fasting blood samples were taken at 24 and 48 hours thereafter. […] On Day-8, after a fasting blood sampling, the groups were switched (i.e., group A took poly-NAG while group B consumed NAG) and the same procedure as shown above was repeated.
The data were analyzed using analytical HPLC procedure based on published methods for amino sugar analysis. The chromatographic system consisted of a Hewlett-Packard 1090M Liquid Chromatograph/Work Station equipped with a Diode Array Detector. Separation was by isocratic elution at 40° C. from a 300×7.8 mm Rezex Organic Acid Column (Phenomenex; N>75000 P/m) with 0.005N H2SO4 at a flow rate of 0.6 ml/min. The analytical conditions had been developed for resolution of the aminosugar/acetylated aminosugar components of physiological fluids, and the diode array detector was optimized at 193 nm for maximum sensitivity and minimum interference. The system was calibrated with standards before, during and after the study to assure there were no significant changes due to wear and tear or aging of the system. The chromatographic data were transferred to a spreadsheet and statistically tested with ANOVA (Single Factor, Two-Factor without Replication, Two-Factor with Replication) and paired T-tests.

The conditions of series [2]: human trials, cited from earlier work.
For series [3] the following is noted: cited from earlier work.

For the compound `CC(=O)N[C@H]1C(O)O[C@H](CO)[C@@H](O)[C@@H]1O` (stereo partly drawn) [NAG, N-acetyl-D-glucosamine], the “subjects showing decreased serum NAG levels” value in series [1] (24 hours following cessation of ingestion, both groups together (4/20)) is reported as 20%. The “concentration of NAG in serum, Avg” value in series [1] (Pre (pretest fasting sample before ingestion), 1.0 g per day oral) is reported as 10.3 nanomoles per ml of serum. For the same compound, the “subjects with increased serum NAG concentrations” value in series [1] (T=0 compared with pretest values, fraction of 20 subject-periods) was 6/20. In addition, the “subjects showing an increase in serum NAG” value in series [1] (T=1 hour compared with pretest value, fraction of 20 subject-periods) is 8/20. In series [1] (both sexes, human, serum, T0, third day fasting, before final 1.0 g oral dose), this compound returned a concentration at 0 h of 15.4 µM. Also, the concentration at 1 h in series [1] (both sexes, human, serum, T1, 1 hour after final 1.0 g oral dose, nonfasting) came to 18.2 µM. The same compound registered a concentration at 2 h in series [1] (both sexes, human, serum, T2, 2 hours after final 1.0 g oral dose, nonfasting) of 21 µM. In series [1] (both sexes, human, serum, T4, 4 hours after final 1.0 g oral dose, nonfasting), this compound yielded a concentration at 4 h of 22.9 µM. The compound further came in with a concentration at 8 h in series [1] (both sexes, human, serum, T8, 8 hours after final 1.0 g oral dose, nonfasting) of 14.6 µM. This compound also registered a concentration at 24 h in series [1] (both sexes, human, serum, T24, 24 hours after final 1.0 g oral dose, fasting) of 13.6 µM. In series [1] (both sexes, human, serum, T48, 48 hours after final 1.0 g oral dose, fasting), this compound registered a concentration at 48 h of 12.7 µM.
On to `N[C@H]1C(O)O[C@H](CO)[C@@H](O)[C@@H]1O.O=S(=O)(O)O` (stereo partly shown) [glucosamine sulfate], for which the “effect on symptoms of osteoarthritis” value in series [2] (pain, joint tenderness, swelling and mobility) is “significant improvement in the symptoms of pain, joint tenderness, swelling and mobility”. Moreover, the “adverse side effects or undesirable drug interactions” value in series [2] is “not to have any adverse side effects or undesirable interactions with other drugs”.
`N[C@H]1C(O)O[C@H](CO)[C@@H](O)[C@@H]1O` (stereo partly shown) [glucosamine]: the “excreted in the feces” value in series [3] (dog, in vivo) was 1.7%. Moreover, the “time of peak protein incorporation of glucosamine” value in series [3] (incorporation into alpha and beta globulins) was 8 h. In addition, in series [3] (mainly as glucosamine), the excreted in urine is 34%.

The values are drawn from US20010014671A1, “Treatment of osteoarthritis by administering poly-N-acetyl-D-glucosamine” (Lescarden, Inc., priority 1996, published 2001).
